Assay results as given in ChEMBL document CHEMBL5532682, “Recent advances of tryptanthrin and its derivatives as potential anticancer agents” (RSC Med Chem, 2024).
Values belong to the compound of their own block, whether it stands above or below them.

What was measured:
[1] = Antiproliferative activity against mouse MC3T3-E1 cells; format: toxicity, cell-based
A549 [2] = test: Antiproliferative activity against human A549 cells; format: functional, cell-based
MCF7 = test: Antiproliferative activity against human MCF7 cells assessed as inhibition of cell growth; format: functional, cell-based
A549 [3] = test: Antiproliferative activity against human A549 cells assessed as inhibition of cell growth; format: functional, cell-based
HeLa = test: Antiproliferative activity against human HeLa cells assessed as inhibition of cell growth; format: functional, cell-based
HT-29 = test: Antiproliferative activity against human HT-29 cells; format: functional, cell-based
PANC-1 = test: Antiproliferative activity against human PANC-1 cells; format: functional, cell-based
MDA-MB-231 [4] = test: Antiproliferative activity against human MDA-MB-231 cells; format: functional, cell-based
[5] = Cytotoxicity activity against human HDF cells; format: toxicity, cell-based; conditions: HDF cells (NHDF)
A549 [6] = test: Antiproliferative activity against human A549 cells measured after 48 hrs by MTT assay; format: functional, cell-based; conditions: A549, 48 h
HCT-116 [7] = test: Antiproliferative activity against human HCT-116 cells measured after 48 hrs by MTT assay; format: functional, cell-based; conditions: HCT-116, 48 h
MDA-MB-231 [8] = test: Antiproliferative activity against human MDA-MB-231 cells measured after 48 hrs by MTT assay; format: functional, cell-based; conditions: MDA-MB-231, 48 h
A549 [9] = test: Antiproliferative activity against human A549 cells measured after 48 hrs; format: functional, cell-based; conditions: A549, 48 h
HCT-116 [10] = test: Antiproliferative activity against human HCT-116 cells measured after 48 hrs; format: functional, cell-based; conditions: HCT-116, 48 h
MDA-MB-231 [11] = test: Antiproliferative activity against human MDA-MB-231 cells measured after 48 hrs; format: functional, cell-based; conditions: MDA-MB-231, 48 h

Structure (SMILES): O=c1c2ccccc2nc2n1-c1ccccc1/C2=N/N=c1/scc(-c2ccc(O)cc2)n1-c1ccccc1
IC50 (MCF7): 58.5 µM
IC50 (A549 [3]): 38.3 µM
IC50 (HeLa): 55.1 µM

Structure (SMILES): O=C1C2C=CC=CC2=NC2/C(=N\Nc3nc(-c4ccccc4)cs3)c3ccccc3N12 (stereo unspecified)
IC50 (MCF7): 40.5 µM
IC50 (A549 [3]): 52 µM
IC50 (HeLa): 46 µM

Structure (SMILES): Cc1nn(Br)c2c1[C@@]1(C(C#N)=C(N)O2)c2ccccc2-n2c1nc1ccccc1c2=O
IC50 (HT-29): 79.7 µM
IC50 (PANC-1): 48.2 µM
IC50 (MDA-MB-231 [4]): 52.4 µM
IC50 [5]: > 100 µM

Structure (SMILES): O=C1C2C=CC=CC2=NC2/C(=N\Nc3nc(-c4ccc([N+](=O)[O-])cc4)cs3)c3ccccc3N12 (stereo unspecified)
IC50 (MCF7): 59.1 µM
IC50 (A549 [3]): 49.1 µM
IC50 (HeLa): 67 µM

Structure (SMILES): O=c1c2ccccc2nc2n1-c1ccccc1/C2=N/N=c1/scc(-c2ccccc2)n1-c1ccccc1
IC50 (MCF7): 50.2 µM
IC50 (A549 [3]): 51.6 µM
IC50 (HeLa): 56.6 µM

Structure (SMILES): O=c1c2ccccc2nc2n1-c1ccccc1/C2=N/N=c1/scc(-c2ccc(F)cc2)n1-c1ccccc1
IC50 (MCF7): 60.1 µM
IC50 (A549 [3]): 44.4 µM
IC50 (HeLa): 52 µM

Structure (SMILES): O=C1c2c(ccc(F)c2N2CCNCC2)-n2c1nc1ccccc1c2=O
IC50 (A549 [6]): > 100 µM
IC50 (HCT-116 [7]): > 100 µM
IC50 (MDA-MB-231 [8]): 65.8 µM

Structure (SMILES): Cc1n[nH]c2c1[C@@]1(C(C#N)=C(N)O2)c2cc(-c3ccccc3)ccc2-n2c1nc1ccccc1c2=O
IC50 (HT-29): 97.9 µM
IC50 (PANC-1): > 100 µM
IC50 (MDA-MB-231 [4]): 72.2 µM
IC50 [5]: > 100 µM

Structure (SMILES): O=C1c2c(ccc(Cl)c2N2CCNCC2)-n2c1nc1ccccc1c2=O
IC50 (A549 [6]): 34.5 µM
IC50 (HCT-116 [7]): > 100 µM
IC50 (MDA-MB-231 [8]): 31.6 µM

Structure (SMILES): O=c1c2ccccc2nc2n1-c1ccccc1/C2=N/N=c1/scc(-c2ccc([N+](=O)[O-])cc2)n1-c1ccccc1
IC50 (MCF7): 43.1 µM
IC50 (A549 [3]): 52.8 µM
IC50 (HeLa): 67 µM

Structure (SMILES): O=C1c2c(N3CCNCC3)cccc2-n2c1nc1ccccc1c2=O
IC50 (A549 [6]): > 100 µM
IC50 (HCT-116 [7]): > 100 µM
IC50 (MDA-MB-231 [8]): > 100 µM
IC50 (A549 [9]): 13.7 µM
IC50 (HCT-116 [10]): 90 µM
IC50 (MDA-MB-231 [11]): 56.1 µM

Structure (SMILES): CC[C@@]1(O)C(=O)OCc2c1cc1n(c2=O)Cc2cc3ccccc3nc2-1 [CAMPTOTHECIN]
IC50 (A549 [2]): 0.39 µM

Continued, in another order:

IC50 (A549 [2]): > 100 µM
Structure (SMILES): O=C1c2cc(F)ccc2-n2c1nc1cc(Cl)ccc1c2=O
IC50 [1]: > 100 µM

IC50 (A549 [6]): > 100 µM
IC50 (HCT-116 [7]): > 100 µM
IC50 (MDA-MB-231 [8]): > 100 µM
Structure (SMILES): Cc1ccc2c(c1N1CCCCC1)C(=O)c1nc3ccccc3c(=O)n1-2

IC50 (A549 [6]): 41.4 µM
IC50 (HCT-116 [7]): > 100 µM
IC50 (MDA-MB-231 [8]): > 100 µM
IC50 (A549 [9]): 41.4 µM
IC50 (HCT-116 [10]): > 100 µM
IC50 (MDA-MB-231 [11]): > 100 µM
Structure (SMILES): O=C1c2c(ccc(F)c2N2CCN(CCO)CC2)-n2c1nc1ccccc1c2=O

IC50 (A549 [2]): 0.51 µM
Structure (SMILES): O=C1c2c(ccc(F)c2Cl)-n2c1nc1ccc(F)c(Cl)c1c2=O
IC50 [1]: 68.3 µM

IC50 (A549 [9]): 1.48 µM
IC50 (HCT-116 [10]): 1.29 µM
IC50 (MDA-MB-231 [11]): 1.78 µM
Structure (SMILES): CCN(CC)c1cc2c(cc1Cl)C(=O)c1nc3ccccc3c(=O)n1-2

IC50 (A549 [2]): > 100 µM
Structure (SMILES): O=C1c2cc(Cl)ccc2-n2c1nc1cc(Cl)ccc1c2=O
IC50 [1]: > 100 µM

IC50 (A549 [6]): > 100 µM
IC50 (HCT-116 [7]): > 100 µM
IC50 (MDA-MB-231 [8]): > 100 µM
IC50 (A549 [9]): > 100 µM
IC50 (HCT-116 [10]): > 100 µM
IC50 (MDA-MB-231 [11]): > 100 µM
Structure (SMILES): O=C1c2c(ccc(F)c2N2CCOCC2)-n2c1nc1ccccc1c2=O

IC50 (A549 [6]): > 100 µM
IC50 (HCT-116 [7]): 10.7 µM
IC50 (MDA-MB-231 [8]): > 100 µM
Structure (SMILES): O=C1c2c(ccc(Cl)c2N2CCOCC2)-n2c1nc1ccccc1c2=O

IC50 (A549 [6]): > 100 µM
IC50 (HCT-116 [7]): > 100 µM
IC50 (MDA-MB-231 [8]): > 100 µM
Structure (SMILES): CN1CCN(c2c(F)ccc3c2C(=O)c2nc4ccccc4c(=O)n2-3)CC1

IC50 (A549 [6]): > 100 µM
IC50 (HCT-116 [7]): > 100 µM
IC50 (MDA-MB-231 [8]): > 100 µM
Structure (SMILES): O=C1c2c(ccc(Cl)c2N2CCCCC2)-n2c1nc1ccccc1c2=O

IC50 (A549 [6]): 98 µM
IC50 (HCT-116 [7]): > 100 µM
IC50 (MDA-MB-231 [8]): 87.3 µM
Structure (SMILES): Cc1ccc2c(c1N(C)C)C(=O)c1nc3ccccc3c(=O)n1-2

IC50 (A549 [2]): > 100 µM
Structure (SMILES): O=C1c2c(ccc(Cl)c2Cl)-n2c1nc1ccc(F)c(Cl)c1c2=O
IC50 [1]: 67.2 µM

IC50 (A549 [2]): > 100 µM
Structure (SMILES): O=C1c2cc(Cl)ccc2-n2c1nc1ccc(Cl)c(Cl)c1c2=O
IC50 [1]: > 100 µM

IC50 (A549 [6]): 52.6 µM
IC50 (HCT-116 [7]): > 100 µM
IC50 (MDA-MB-231 [8]): > 100 µM
Structure (SMILES): Cc1ccc2c(c1N1CCN(C)CC1)C(=O)c1nc3ccccc3c(=O)n1-2

IC50 (A549 [6]): 1.48 µM
IC50 (HCT-116 [7]): 1.29 µM
IC50 (MDA-MB-231 [8]): 1.78 µM
Structure (SMILES): CCN(CC)c1c(Cl)ccc2c1C(=O)c1nc3ccccc3c(=O)n1-2

IC50 (A549 [2]): > 100 µM
Structure (SMILES): O=C1c2cc(F)ccc2-n2c1nc1ccc(F)c(Cl)c1c2=O
IC50 [1]: 89.7 µM

IC50 (A549 [2]): > 100 µM
Structure (SMILES): O=C1c2cc(Cl)ccc2-n2c1nc1ccc(F)c(Cl)c1c2=O
IC50 [1]: > 100 µM

IC50 (A549 [6]): > 100 µM
IC50 (HCT-116 [7]): > 100 µM
IC50 (MDA-MB-231 [8]): > 100 µM
IC50 (A549 [9]): > 100 µM
IC50 (HCT-116 [10]): > 100 µM
IC50 (MDA-MB-231 [11]): > 100 µM
Structure (SMILES): O=C1c2c(ccc(F)c2N2CCN(c3ccccn3)CC2)-n2c1nc1ccccc1c2=O

IC50 (A549 [6]): > 100 µM
IC50 (HCT-116 [7]): 64.2 µM
IC50 (MDA-MB-231 [8]): > 100 µM
IC50 (A549 [9]): > 100 µM
IC50 (HCT-116 [10]): 64.2 µM
IC50 (MDA-MB-231 [11]): > 100 µM
Structure (SMILES): O=C1c2c(ccc(F)c2N2CCCCC2)-n2c1nc1ccccc1c2=O
